Measurements reported in paper PMC9229294, “Pyridazinones and Structurally Related Derivatives with Anti-Inflammatory Activity” (Molecules, 2022).

Columns and labels:
[1] = Cytotoxicity, CellTiter-Glo, THP1-Blue cells; format: cell-based, human; settings: human, THP1-Blue cells
Method: (§1) Our studies included 175 compounds that were previously synthesized and characterized at NEUROFARBA, Pharmaceutical and Nutraceutical Section, University of Florence, Italy. We previously evaluated the FPR1/FPR2 agonist activity of these compounds by evaluating their ability to induce Ca^2+ mobilization in FPR-transfected HL60 cells and human neutrophils. […] All test compounds were dissolved in DMSO at stock concentrations of 10 mM and stored at −20 °C. For primary screening assays (analysis of NF-κB activation, IL-6 production, and cytotoxicity), the following final concentrations of the compounds were used: 3.125, 6.25, 12.5, 25, and 50 µM; the final concentration of DMSO was 1% in all samples.
(§2) The cytotoxicity was analyzed with a CellTiter-Glo Luminescent Cell Viability Assay Kit from Promega (Madison, WI, USA), according to the manufacturer’s protocol. The luminescent ATP assays are based on a luciferase enzymatic reaction which uses ATP from viable cells to generate photons. For this assay, the cells were incubated with the compounds under investigation for 24 h. After treatment, the cells were equilibrated to room temperature for 30 min, luciferase + luciferin substrate was added, and the samples were analyzed with a Fluoroscan Ascent FL (Thermo Fisher Scientific, Waltham, MA, USA). The IC50 values were calculated by plotting the percentage inhibition against the logarithm of the inhibitor concentration (at least five points).

[2] = test system: LPS-induced NF-κB activity in THP1-Blue cells; test: Inhibition of LPS-induced NF-κB transcriptional activity, alkaline phosphatase reporter, THP1-Blue cells; format: cell-based, human; settings: for IC50: LPS-induced NF-κB activity, human THP1-Blue cells, N.A. = no activity at 50 µM; for Observed class for inhibition of NF-κB activity: experimentally observed, Active or N.A.; for Inhibition of LPS-induced NF-κB activity (in words): THP1-Blue cells
Method: as §1
The activation of NF-κB was measured using an alkaline phosphatase reporter assay in human monocytic THP1-Blue cells stably transfected with a secreted embryonic alkaline phosphatase gene that is under the control of a promoter inducible by the NF-κB. The THP1-Blue cells (2 × 10^5 cells/well) were pretreated with the test compound or DMSO for 30 min, followed by an addition of 250 ng/mL LPS for 24 h. Alkaline phosphatase activity was determined in cell supernatants using a QUANTI-Blue mix (InvivoGen) and measured at 655 nm and compared with positive control samples (LPS).

FPR1 = biological target: T1, FPR1 (Homo sapiens, UniProt P21462); settings: FPR1-transfected HL-60 cells; agonist activity from Table 1; read-out: Ca2+ Mobilization FPR1 EC50 in HL-60 Cells; cited from earlier work
T1 construct: expressed in transfected cells; host or cells: HL-60 cells (FPR1-HL60)
T1 sequence (P21462 1-350): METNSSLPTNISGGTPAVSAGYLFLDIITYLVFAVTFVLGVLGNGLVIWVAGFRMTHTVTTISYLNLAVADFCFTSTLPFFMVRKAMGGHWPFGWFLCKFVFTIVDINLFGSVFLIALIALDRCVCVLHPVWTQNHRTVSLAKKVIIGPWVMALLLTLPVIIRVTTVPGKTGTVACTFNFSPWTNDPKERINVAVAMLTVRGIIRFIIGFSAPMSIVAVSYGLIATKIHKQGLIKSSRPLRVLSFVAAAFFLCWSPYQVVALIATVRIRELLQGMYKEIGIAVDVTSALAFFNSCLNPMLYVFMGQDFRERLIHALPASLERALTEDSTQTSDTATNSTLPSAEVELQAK

FPR2 = biological target: T2, FPR2 (Homo sapiens, UniProt P25090); settings: FPR2-transfected HL-60 cells; agonist activity from Table 1; read-out: Ca2+ Mobilization FPR2 EC50 in HL-60 Cells; cited from earlier work
T2 construct: expressed in transfected cells; host or cells: HL-60 cells (FPR2-HL60)
T2 sequence (P25090 1-351): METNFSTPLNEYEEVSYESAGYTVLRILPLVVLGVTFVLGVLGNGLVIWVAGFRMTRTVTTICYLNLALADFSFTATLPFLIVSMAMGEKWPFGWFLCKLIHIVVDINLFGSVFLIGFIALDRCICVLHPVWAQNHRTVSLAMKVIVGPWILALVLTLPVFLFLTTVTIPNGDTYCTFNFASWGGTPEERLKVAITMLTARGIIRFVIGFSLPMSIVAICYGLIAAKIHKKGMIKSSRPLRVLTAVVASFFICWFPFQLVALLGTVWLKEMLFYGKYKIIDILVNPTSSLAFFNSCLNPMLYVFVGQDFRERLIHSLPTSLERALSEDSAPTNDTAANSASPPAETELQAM

[3] = test system: LPS-induced IL-6 production in MonoMac-6 cells; test: Inhibition of LPS-induced IL-6 production in MonoMac-6 cells (ELISA); format: cell-based, human
Method: as §1
A human IL-6 ELISA kit (BD Biosciences, San Jose, CA, USA) was used to measure IL-6 production. […] The cells were pretreated with the test compound or DMSO for 30 min, followed by addition of 250 ng/mL LPS for 24 h. The IC50 values for IL-6 production were calculated by plotting the percentage inhibition against the logarithm of the inhibitor concentration (at least five points).

[4] = Cytotoxicity, CellTiter-Glo, MonoMac-6 cells; format: cell-based, human; settings: human, MonoMac-6 cells
Method: as §1, §2

[5] = N.T. = no cytotoxicity at 50 µM, read-out: Cytotoxicity IC50 in THP1-Blue Cells

IC50 ([2]; Homo sapiens)	Molecule	IC50 at 24 h [1, 5]	Observed class for inhibition of NF-κB activity [2]	EC50 (FPR1)	EC50 (FPR2)	also measured
33.6 ± 2.1 µM	COc1cccc(Cc2cc(C)nn(CC(=O)Nc3ccc(F)cc3)c2=O)c1 [Compound 15]	> 50 µM	Active	–	–	–
46.1 ± 1 µM	COc1cccc(Cc2cc(C)nn(CC(=O)Nc3ccc([N+](=O)[O-])cc3)c2=O)c1 [Compound 5]	> 50 µM	Active	–	–	–
22 ± 1.7 µM	COc1cccc(Cc2cc(C(C)C)nn(CC(=O)Nc3ccc(Br)cc3)c2=O)c1 [Compound 10]	> 50 µM	Active	–	–	IC50 ([3]; Homo sapiens, MONO-MAC-6, read-out: Inhibition of IL-6 Production IC50 in MonoMac-6 Cells): 8.7 ± 1.6 µM; IC50 at 24 h [4]: > 50 µM
31.3 ± 1.6 µM	CCCCOc1ccc(-c2c(OC)cnn(Cc3ccc(OC)cc3)c2=O)cc1 [Compound 109]	> 50 µM	Active	> 50 µM	> 50 µM	–
34.5 ± 2.1 µM	COc1ccc(Cc2cc(-c3ccc(F)cc3)nn(CC(=O)Nc3ccc(Br)cc3)c2=O)cc1 [Compound 49]	> 50 µM	Active	> 50 µM	> 50 µM	–

Continued, molecule first:

Molecule	IC50 ([2]; Homo sapiens)	IC50 at 24 h [1, 5]	Observed class for inhibition of NF-κB activity [2]	EC50 (FPR1)	EC50 (FPR2)	also measured
CC1CC(c2ccccc2)=NN(CC(=O)Nc2ccc(F)cc2)C1=O (centres unmarked) [Compound 122]	46.3 ± 2.4 µM	> 50 µM	–	> 50 µM	> 50 µM	–
COc1cccc(Nc2cn(-c3ccccc3)n(CC(=O)Nc3ccc(Br)cc3)c2=O)c1 [Compound 164]	35.7 ± 1.9 µM	> 50 µM	Active	29 µM	> 50 µM	–
Cc1cc(Cc2ccc(C(F)(F)F)cc2)c(=O)n(CC(=O)Nc2ccc(Br)cc2)n1 [Compound 66]	31.5 ± 2.2 µM	26.4 ± 4.7 µM	Active	> 50 µM	> 50 µM	IC50 at 24 h ([1]; 24 h, read-out: Cytotoxicity IC50): 22 to 26 µM
O=C(Cn1c(-c2ccc(Cl)cc2)csc1=O)Nc1ccc(Br)cc1 [Compound 168]	43.4 ± 4.2 µM	> 50 µM	Active	2.8 µM	2.4 µM	–
Cc1cc(-c2ccccc2)nn(CC(=O)Nc2ccc(Br)cc2)c1=O [Compound 67]	30.9 ± 2.3 µM	> 50 µM	–	21.5 µM	10.1 µM	Inhibition of LPS-induced NF-κB activity (in words) ([2]; 250 ng/mL LPS, 24 h): active
COc1ccc(-c2cc(C)nn(CC(=O)Nc3ccc(Br)cc3)c2=O)cc1 [Compound 19]	–	–	–	–	–	Inhibition of LPS-induced NF-κB activity (in words) ([2]; 250 ng/mL LPS, 24 h): inactive
COc1cccc(-c2nn(CC(=O)Nc3ccc(Br)cc3)c(C)c2C#N)c1 [Compound 160]	–	> 50 µM	Active	8.2 µM	4.8 µM	IC50 [2]: 28.8 ± 2 µM
N-formyl-Met-Leu-Phe [fMLF, reference compound]	–	–	–	–	–	Inhibition of LPS-induced IL-6 production (in words) ([3]; MonoMac-6 cells, 250 ng/mL LPS, 24 h): did not affect; Inhibition of LPS-induced NF-κB activity (in words) ([2]; peptide at 5 nM): did not inhibit
CC1CC(c2ccccc2)=NN(CC(=O)Nc2ccc(Br)cc2)C1=O (centres unmarked) [Compound 124]	42.7 ± 0.3 µM	> 50 µM	–	19.5 µM	10.7 µM	–
COc1ccc2c(c1)c(CC(=O)Nc1ccc(Br)cc1)c(C)n2C(=O)c1ccc(Cl)cc1 [Compound 133]	–	–	–	–	–	Inhibition of LPS-induced NF-κB activity (in words) ([2]; 250 ng/mL LPS, 24 h): inactive
